Laboratory results published in US20180162862A1 (President and Fellows of Harvard College, priority 2015, published 2018).
In brackets after ≈: the same amount, converted by molar mass.

Experiments:
Type in all cases: cell-based
S. aureus ATCC 29213 = experiment: MIC test according to CLSI M7-A9, S. aureus ATCC 29213; details: Staphylococcus aureus, ATCC29213; CLSI M7-A9, CAMHB, 24 h (Table 3); read-out: S. aureus ATCC 29213 MIC
How it was run: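 Per CLSI M7-A9, DMSO stocks diluted in cation-adjusted Mueller Hinton broth, plates incubated 24 h at 37 °C in air. MIC is the lowest concentration giving complete inhibition of visible growth, read visually and at 600 nm.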

S. aureus ATCC 43300 = experiment: MIC test according to CLSI M7-A9, S. aureus ATCC 43300; details: Staphylococcus aureus, ATCC43300; CLSI M7-A9, CAMHB, 24 h (Table 3); read-out: S. aureus ATCC 43300 MIC
Experimental: (§1) MIC Test (S. aureus ATCC 29213, S. aureus ATCC 43300 and S. aureus Newman)
(§2) Susceptibility testing of S. aureus ATCC 29213, ATCC 43300 and Newman was performed according to Clinical Laboratory Standard Institute (CLSI) guidelines M7-A9. Test articles were stored at room temperature prior to use, then dissolved in filtered sterile DMSO. Stock DMSO solutions were diluted further in cation-adjusted Mueller Hinton broth (CAMHB) to provide appropriate test concentrations. Cultures of S. aureus (ATCC 29213, ATCC 43300 or Newman) were added in accordance with CLSI guidelines and plates incubated at 37° C. in air for 24 h. Endpoints were determined visually (and by spectrophotometer at 600 nm) and the minimum inhibitory concentration (MIC) defined as the lowest concentration of test articles resulting in complete inhibition of visible bacterial growth. Results are detailed in Table 2 (S. aureus ATCC 29213 and ATCC 43300) and Table 3 (S. aureus ATCC 29213, ATCC 43300 and Newman).

S. aureus Newman = experiment: MIC test according to CLSI M7-A9, S. aureus Newman; details: Staphylococcus aureus, CLSI M7-A9, CAMHB, 24 h (Table 3), read-out: S. aureus ATCC Newman MIC
Experimental: as §1, §2

MIC (S. aureus ATCC 29213) | MIC (S. aureus ATCC 43300) | MIC (S. aureus Newman) | SMILES
> 32 µg/mL | > 32 µg/mL | > 32 µg/mL | CCCCCCCCCCCCCCCCNc1nc(-c2ccc(C(C)(C)C)cc2)nc2cc(=O)[nH]n12 [Example 73, 2-(4-tert-butylphenyl)-4-(hexadecylamino)-6H,7H-pyrazolo[1,5-a][1,3,5]triazin-7-one]
16 µg/mL (≈ 37.2 µM) | 16 µg/mL (≈ 37.2 µM) | 16 µg/mL (≈ 37.2 µM) | CC(C)(C)c1ccc(-c2nc(NCCCNCc3ccccc3)n3[nH]c(=O)cc3n2)cc1 [Example 74, 4-{[3-(benzylamino)propyl]amino}-2-(4-tert-butylphenyl)-6H,7H-pyrazolo[1,5-a][1,3,5]triazin-7-one]
32 µg/mL (≈ 86.8 µM) | 32 µg/mL (≈ 86.8 µM) | 32 µg/mL (≈ 86.8 µM) | CN(C)CCCNc1nc(-c2ccc(C(C)(C)C)cc2)nc2cc(=O)[nH]n12 [Example 75, 2-(4-tert-butylphenyl)-4-{[3-(dimethylamino)propyl]amino}-6H,7H-pyrazolo[1,5-a][1,3,5]triazin-7-one]
32 µg/mL (≈ 86.6 µM) | 64 µg/mL (≈ 173 µM) | 32 µg/mL (≈ 86.6 µM) | CC(C)(O)CCNc1nc(-c2ccc(C(C)(C)C)cc2)nc2cc(=O)[nH]n12 [Example 80, 2-(4-tert-butylphenyl)-4-[(3-hydroxy-3-methylbutyl)amino]-6H,7H-pyrazolo[1,5-a][1,3,5]triazin-7-one]
128 µg/mL (≈ 323 µM) | 128 µg/mL (≈ 323 µM) | 128 µg/mL (≈ 323 µM) | CC(C)(C)c1ccc(-c2nc(NCCN3CCOCC3)n3[nH]c(=O)cc3n2)cc1 [Example 81, 2-(4-tert-butylphenyl)-4-{[2-(morpholin-4-yl)ethyl]amino}-6H,7H-pyrazolo[1,5-a][1,3,5]triazin-7-one]
64 µg/mL (≈ 162 µM) | 64 µg/mL (≈ 162 µM) | 32 µg/mL (≈ 81.1 µM) | CC(C)(C)c1ccc(-c2nc(NCCN3CCCCC3)n3[nH]c(=O)cc3n2)cc1 [Example 82, 2-(4-tert-butylphenyl)-4-{[2-(piperidin-1-yl)ethyl]amino}-6H,7H-pyrazolo[1,5-a][1,3,5]triazin-7-one]
32 µg/mL (≈ 75.7 µM) | 32 µg/mL (≈ 75.7 µM) | 32 µg/mL (≈ 75.7 µM) | CN(CCNc1nc(-c2ccc(C(C)(C)C)cc2)nc2cc(=O)[nH]n12)C1CCCCC1 [Example 83, 2-(4-tert-butylphenyl)-4-({2-[cyclohexyl(methyl)amino]ethyl}amino)-6H,7H-pyrazolo[1,5-a][1,3,5]triazin-7-one]
32 µg/mL (≈ 62.7 µM) | 32 µg/mL (≈ 62.7 µM) | 4 µg/mL (≈ 7.84 µM) | Cc1cc(OCCCN(CCO)c2nc(-c3ccc(C(C)(C)C)cc3)nc3cc(=O)[nH]n23)ccc1Cl [Example 85]
32 µg/mL (≈ 72.6 µM) | 32 µg/mL (≈ 72.6 µM) | 32 µg/mL (≈ 72.6 µM) | CC(C)(C)c1ccc(-c2nc(NCC(F)CNC3CCCCC3)n3[nH]c(=O)cc3n2)cc1 (centres unmarked) [Example 87, 2-(4-tert-butylphenyl)-4-{[3-(cyclohexylamino)-2-fluoropropyl]amino}-6H,7H-pyrazolo[1,5-a][1,3,5]triazin-7-one]
32 µg/mL (≈ 105 µM) | 16 µg/mL (≈ 52.6 µM) | 8 µg/mL (≈ 26.3 µM) | Cc1oc(C(C)(C)C)cc1-c1nc2cc(=O)[nH]n2c(=S)[nH]1 [Example 92, 2-(5-tert-butyl-2-methylfuran-3-yl)-4-sulfanylidene-3H,4H,6H,7H-pyrazolo[1,5-a][1,3,5]triazin-7-one]
32 µg/mL (≈ 92.6 µM) | 32 µg/mL (≈ 92.6 µM) | 16 µg/mL (≈ 46.3 µM) | Cc1oc(C(C)(C)C)cc1-c1nc(NCCCO)n2[nH]c(=O)cc2n1 [Example 93, 2-(5-tert-butyl-2-methylfuran-3-yl)-4-[(3-hydroxypropyl)amino]-6H,7H-pyrazolo[1,5-a][1,3,5]triazin-7-one]
16 µg/mL (≈ 34.7 µM) | 16 µg/mL (≈ 34.7 µM) | 16 µg/mL (≈ 34.7 µM) | Cc1oc(C(C)(C)C)cc1-c1nc(NCCCNC2Cc3ccccc3C2)n2[nH]c(=O)cc2n1 [Example 94]
64 µg/mL (≈ 212 µM) | 64 µg/mL (≈ 212 µM) | 32 µg/mL (≈ 106 µM) | O=c1cc2nc(C34CC5CC(CC(C5)C3)C4)[nH]c(=S)n2[nH]1 [Example 99, 2-(adamantan-1-yl)-4-sulfanylidene-3H,4H,6H,7H-pyrazolo[1,5-a][1,3,5]triazin-7-one]
32 µg/mL (≈ 93.2 µM) | 32 µg/mL (≈ 93.2 µM) | 16 µg/mL (≈ 46.6 µM) | O=c1cc2nc(C34CC5CC(CC(C5)C3)C4)nc(NCCCO)n2[nH]1 [Example 100, 2-(adamantan-1-yl)-4-[(3-hydroxypropyl)amino]-6H,7H-pyrazolo[1,5-a][1,3,5]triazin-7-one]
8 µg/mL (≈ 17.4 µM) | 8 µg/mL (≈ 17.4 µM) | 8 µg/mL (≈ 17.4 µM) | O=c1cc2nc(C34CC5CC(CC(C5)C3)C4)nc(NCCCNC3Cc4ccccc4C3)n2[nH]1 [Example 101, 2-(adamantan-1-yl)-4-({3-[(2,3-dihydro-1H-inden-2-yl)amino]propyl}amino)-6H,7H-pyrazolo[1,5-a][1,3,5]triazin-7-one]
16 µg/mL (≈ 36.2 µM) | 8 µg/mL (≈ 18.1 µM) | 32 µg/mL (≈ 72.3 µM) | CC(=O)c1ccc(-c2nc(NCCCNC3Cc4ccccc4C3)n3[nH]c(=O)cc3n2)cc1 [Example 103, 2-(4-acetylphenyl)-4-({3-[(2,3-dihydro-1H-inden-2-yl)amino]propyl}amino)-6H,7H-pyrazolo[1,5-a][1,3,5]triazin-7-one]
32 µg/mL (≈ 70.8 µM) | 32 µg/mL (≈ 70.8 µM) | 32 µg/mL (≈ 70.8 µM) | CC(=O)c1ccc(-c2nc(NCCCOc3ccc(Cl)c(C)c3)n3[nH]c(=O)cc3n2)cc1 [Example 104, 2-(4-acetylphenyl)-4-{[3-(4-chloro-3-methylphenoxy)propyl]amino}-6H,7H-pyrazolo[1,5-a][1,3,5]triazin-7-one]
32 µg/mL (≈ 69.8 µM) | 16 µg/mL (≈ 34.9 µM) | 32 µg/mL (≈ 69.8 µM) | CC(C)(O)c1ccc(-c2nc(NCCCNC3Cc4ccccc4C3)n3[nH]c(=O)cc3n2)cc1 [Example 105, 4-({3-[(2,3-dihydro-1H-inden-2-yl)amino]propyl}amino)-2-[4-(2-hydroxypropan-2-yl)phenyl]-6H,7H-pyrazolo[1,5-a][1,3,5]triazin-7-one]
2 µg/mL (≈ 5.12 µM) | 2 µg/mL (≈ 5.12 µM) | 1 µg/mL (≈ 2.56 µM) | CC(C)(C)c1ccc(-c2nc3c(Cc4ccccc4)c(=O)[nH]n3c(=S)[nH]2)cc1 [Example 106, 8-benzyl-2-(4-tert-butylphenyl)-4-sulfanylidene-3H,4H,6H,7H-pyrazolo[1,5-a][1,3,5]triazin-7-one]
8 µg/mL (≈ 18.5 µM) |  | 8 µg/mL (≈ 18.5 µM) | O=c1[nH]n2c(NCCCO)nc(C34CC5CC(CC(C5)C3)C4)nc2c1Cc1ccccc1 [Example 122, 2-(adamantan-1-yl)-8-benzyl-4-[(3-hydroxypropyl)amino]-6H,7H-pyrazolo[1,5-a][1,3,5]triazin-7-one]
4 µg/mL (≈ 8.68 µM) |  | 4 µg/mL (≈ 8.68 µM) | CN(C)CCCNc1nc(C23CC4CC(CC(C4)C2)C3)nc2c(Cc3ccccc3)c(=O)[nH]n12 [Example 123, 2-(adamantan-1-yl)-8-benzyl-4-{[3-(dimethylamino)propyl]amino}-6H,7H-pyrazolo[1,5-a][1,3,5]triazin-7-one]
128 µg/mL (≈ 233 µM) |  | 2 µg/mL (≈ 3.64 µM) | O=c1[nH]n2c(NCCCN3CCc4ccccc4C3)nc(C34CC5CC(CC(C5)C3)C4)nc2c1Cc1ccccc1 [Example 124, 2-(adamantan-1-yl)-8-benzyl-4-{[3-(1,2,3,4-tetrahydroisoquinolin-2-yl)propyl]amino}-6H,7H-pyrazolo[1,5-a][1,3,5]triazin-7-one]
2 µg/mL (≈ 3.64 µM) |  | 1 µg/mL (≈ 1.82 µM) | O=c1[nH]n2c(NCCCNC3Cc4ccccc4C3)nc(C34CC5CC(CC(C5)C3)C4)nc2c1Cc1ccccc1 [Example 125, 2-(adamantan-1-yl)-8-benzyl-4-({3-[(2,3-dihydro-1H-inden-2-yl)amino]propyl}amino)-6H,7H-pyrazolo[1,5-a][1,3,5]triazin-7-one]
